Measured values as given in patent US20090291938A1 (TAKEDA PHARMACEUTICAL COMPANY LIMITED, priority 2007, published 2009).

Each compound was assayed on HT29 human colorectal adenocarcinoma cell line (assay: cell proliferation assay (Cell Titer-Glo luminescent cell viability assay)). Settings: HT-29, 72 h, read-out: pIC50 (converted).
Format: cell-based
In short: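 Cells grown in DMEM with 10% FBS and exposed to compounds for 72 h. Viability read by CellTiter-Glo luminescence, expressed as percentage of DMSO-treated cells.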

Compound	IC50
COc1cc(C(=O)NC2CCN(C)CC2)ccc1Nc1ncc2c(n1)N(C1CCCC1)CC(C)(C)C(=O)N2C [Compound 86, 4-(9-cyclopentyl-5,7,7-trimethyl-6-oxo-6,7,8,9-tetrahydro-5H-pyrimido[4,5-b][1,4]diazepin-2-ylamino)-3-methoxy-N-(1-methylpiperidin-4-yl)benzamide]	3.16 to 10 nM

Same assay, conditions: HT-29, cell proliferative assay, HT29 cells, 72 hr treatment, values given as ranges, read-out: pIC50 (converted)

Compound	IC50
COc1cc(C(=O)NCCCN(C)C)ccc1Nc1ncc2c(n1)N(C1CCCC1)CC(C)(C)C(=O)N2C [Compound 89, 4-(9-cyclopentyl-5,7,7-trimethyl-6-oxo-6,7,8,9-tetrahydro-5H-pyrimido[4,5-b][1,4]diazepin-2-ylamino)-N-(3-(dimethylamino)propyl)-3-methoxybenzamide]	3.16 to 10 nM
COc1cc(C(=O)NN2CCN(CCO)CC2)ccc1Nc1ncc2c(n1)N(C1CCCC1)CC(C)(C)C(=O)N2C [Compound 105, 4-(9-cyclopentyl-5,7,7-trimethyl-6-oxo-6,7,8,9-tetrahydro-5H-pyrimido[4,5-b][1,4]diazepin-2-ylamino)-N-(4-(2-hydroxyethyl)piperazin-1-yl)-3-methoxybenzamide]	1 to 2.51 nM
CC[C@H]1CN(C2CCCC2)c2nc(Nc3ccc(C(=O)NC4CCN(C)CC4)cc3OC)ncc2N(C)C1=O [Compound 36, (S)-4-(9-Cyclopentyl-7-ethyl-5-methyl-6-oxo-6,7,8,9-tetrahydro-5H-pyrimido[4,5-b][1,4]diazepin-2-ylamino)-3-methoxy-N-(1-methyl-piperidin-4-yl)-benzamide]	3.16 to 10 nM

Results, then the compound that gave them:

IC50	Compound
> 10 nM	COc1cc(C(=O)NC2CCN(C)CC2)ccc1Nc1ncc2c(n1)N(C1CCCCC1)CC(C1CC1)C(=O)N2C (stereo not shown) [Compound 156, 4-(9-cyclohexyl-7-cyclopropyl-5-methyl-6-oxo-6,7,8,9-tetrahydro-5H-pyrimido[4,5-b][1,4]diazepin-2-ylamino)-3-methoxy-N-(1-methylpiperidin-4-yl)benzamide]
1 to 2.51 nM	COc1cc(C(=O)NN2CCN(C)CC2)ccc1Nc1ncc2c(n1)N(C1CCCC1)CC1(CC1)C(=O)N2C [Compound 168, 4-(9′-cyclopentyl-5′-methyl-6′-oxo-5′,6′,8′,9′-tetrahydrospiro[cyclopropane-1,7′-pyrimido[4,5-b][1,4]diazepine]-2′-ylamino)-3-methoxy-N-(4-methylpiperazin-1-yl)benzamide]
< 1 nM	C/C=C\CC1CN(C2CCCC2)c2nc(Nc3ccc(C(=O)NC4CCN(C)CC4)cc3OC)ncc2N(C)C1=O (stereo not shown) [Compound 218, (Z)-4-(7-(but-2-enyl)-9-cyclopentyl-5-methyl-6-oxo-6,7,8,9-tetrahydro-5H-pyrimido[4,5-b][1,4]diazepin-2-ylamino)-3-methoxy-N-(1-methylpiperidin-4-yl)benzamide]
1 to 2.51 nM	COc1cc(C(=O)NN2CCN(C)CC2)ccc1Nc1ncc2c(n1)N(C1CCCCC1)CC(C)(C)C(=O)N2C [Compound 112, 4-(9-cyclohexyl-5,7,7-trimethyl-6-oxo-6,7,8,9-tetrahydro-5H-pyrimido[4,5-b][1,4]diazepin-2-ylamino)-3-methoxy-N-(4-methylpiperazin-1-yl)benzamide]
1 to 2.51 nM	C=CC[C@H]1CN(C2CCCC2)c2nc(Nc3ccc(C(=O)N[C@H]4CCCNC4)cc3OC)ncc2N(C)C1=O [Compound 201, 4-((S)-7-allyl-9-cyclopentyl-5-methyl-6-oxo-6,7,8,9-tetrahydro-5H-pyrimido[4,5-b][1,4]diazepin-2-ylamino)-3-methoxy-N-((S)-piperidin-3-yl)benzamide]
3.16 to 10 nM	C=CC1(C)CN(C2CCCC2)c2nc(Nc3ccc(C(=O)N[C@@H]4CCCNC4)cc3OC)ncc2N(C)C1=O (stereo partly drawn) [Compound 245, 4-(9-cyclopentyl-5,7-dimethyl-6-oxo-7-vinyl-6,7,8,9-tetrahydro-5H-pyrimido[4,5-b][1,4]diazepin-2-ylamino)-3-methoxy-N-((R)-piperidin-3-yl)benzamide]
